According to PubChem BioAssay (NCI):
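Cells were grown in 96-well plates and exposed to each compound for 48 hours at five concentrations; endpoints were interpolated linearly between bracketing concentrations, or set to the highest concentration if not reached. GI50 is the concentration that inhibits growth by half. At the TGI there is no net growth.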

Experiments:
Experiment in all cases: NCI tumour cell line growth inhibition, 48 h
DU-145 prostate = test system: DU-145 prostate
SK-MEL-5 melanoma = test system: SK-MEL-5 melanoma
SF-539 CNS = test system: SF-539 CNS
A498 renal = test system: A498 renal
OVCAR-3 ovarian = test system: OVCAR-3 ovarian
A549 NSCLC = test system: A549 NSCLC
K-562 leukemia = test system: K-562 leukemia
CAKI-1 renal = test system: CAKI-1 renal
HCC-2998 colon = test system: HCC-2998 colon
NCI-H226 lung = test system: NCI-H226 lung
OVCAR-5 ovarian = test system: OVCAR-5 ovarian
MDA-MB-231 breast = test system: MDA-MB-231 breast
UACC-257 melanoma = test system: UACC-257 melanoma
SNB-19 CNS = test system: SNB-19 CNS
M14 melanoma = test system: M14 melanoma
HCT-116 colon = test system: HCT-116 colon
KM12 colon = test system: KM12 colon
HOP-92 NSCLC = test system: HOP-92 NSCLC
CCRF-CEM leukemia = test system: CCRF-CEM leukemia
HL-60(TB) leukemia = test system: HL-60(TB) leukemia
HOP-62 NSCLC = test system: HOP-62 NSCLC
HCT-15 colon = test system: HCT-15 colon
HT29 colon = test system: HT29 colon
NCI/ADR-RES ovarian = test system: NCI/ADR-RES ovarian
SW-620 colon = test system: SW-620 colon
COLO 205 colon = test system: COLO 205 colon
SR leukemia = test system: SR leukemia
SK-OV-3 ovarian = test system: SK-OV-3 ovarian
NCI-H460 lung = test system: NCI-H460 lung
SF-268 CNS = test system: SF-268 CNS
PC-3 prostate = test system: PC-3 prostate
LOX IMVI melanoma = test system: LOX IMVI melanoma
MCF7 breast = test system: MCF7 breast
OVCAR-4 ovarian = test system: OVCAR-4 ovarian
UACC-62 melanoma = test system: UACC-62 melanoma
SN12C renal = test system: SN12C renal
786-0 renal = test system: 786-0 renal
NCI-H522 lung = test system: NCI-H522 lung
U251 CNS = test system: U251 CNS
ACHN renal = test system: ACHN renal
IGROV1 ovarian = test system: IGROV1 ovarian
MOLT-4 leukemia = test system: MOLT-4 leukemia
HS 578T breast = test system: HS 578T breast
UO-31 renal = test system: UO-31 renal
NCI-H23 lung = test system: NCI-H23 lung
RPMI-8226 leukemia = test system: RPMI-8226 leukemia
EKVX NSCLC = test system: EKVX NSCLC
SK-MEL-28 melanoma = test system: SK-MEL-28 melanoma
BT-549 breast = test system: BT-549 breast
SNB-75 CNS = test system: SNB-75 CNS
SK-MEL-2 melanoma = test system: SK-MEL-2 melanoma
SF-295 CNS = test system: SF-295 CNS
MALME-3M melanoma = test system: MALME-3M melanoma
OVCAR-8 ovarian = test system: OVCAR-8 ovarian
MDA-MB-435 = test system: MDA-MB-435
TK-10 renal = test system: TK-10 renal
RXF 393 renal = test system: RXF 393 renal

COc1ccc(C(c2cc(OC)c(OC)c(OC)c2)n2ccnc2)cc1O (stereo unspecified)
GI50 (DU-145 prostate): 0.407 µM
TGI (DU-145 prostate): > 100 µM
GI50 (SK-MEL-5 melanoma): 0.367 µM
TGI (SK-MEL-5 melanoma): 3.18 µM
GI50 (SF-539 CNS): 0.217 µM
TGI (SF-539 CNS): 0.552 µM
GI50 (A498 renal): 0.304 µM
TGI (A498 renal): 0.941 µM
GI50 (OVCAR-3 ovarian): 0.264 µM
TGI (OVCAR-3 ovarian): 0.857 µM
GI50 (A549 NSCLC): 0.838 µM
TGI (A549 NSCLC): > 100 µM
GI50 (K-562 leukemia): 0.225 µM
TGI (K-562 leukemia): > 100 µM
GI50 (CAKI-1 renal): 0.68 µM
TGI (CAKI-1 renal): > 100 µM
GI50 (HCC-2998 colon): 1.72 µM
TGI (HCC-2998 colon): > 100 µM
GI50 (NCI-H226 lung): 0.64 µM
TGI (NCI-H226 lung): > 100 µM
GI50 (OVCAR-5 ovarian): 0.648 µM
TGI (OVCAR-5 ovarian): > 100 µM
GI50 (MDA-MB-231 breast): 0.664 µM
TGI (MDA-MB-231 breast): > 100 µM
GI50 (UACC-257 melanoma): 1.44 µM
TGI (UACC-257 melanoma): > 100 µM
GI50 (SNB-19 CNS): 0.532 µM
TGI (SNB-19 CNS): > 100 µM
GI50 (M14 melanoma): 0.18 µM
TGI (M14 melanoma): 0.646 µM
GI50 (HCT-116 colon): 0.249 µM
TGI (HCT-116 colon): > 100 µM
GI50 (KM12 colon): 0.389 µM
TGI (KM12 colon): > 100 µM
GI50 (HOP-92 NSCLC): 28.6 µM
TGI (HOP-92 NSCLC): > 100 µM
GI50 (CCRF-CEM leukemia): 0.289 µM
TGI (CCRF-CEM leukemia): > 100 µM
GI50 (HL-60(TB) leukemia): 0.229 µM
TGI (HL-60(TB) leukemia): 0.628 µM
GI50 (HOP-62 NSCLC): 0.516 µM
TGI (HOP-62 NSCLC): > 100 µM
GI50 (HCT-15 colon): 0.464 µM
TGI (HCT-15 colon): > 100 µM
GI50 (HT29 colon): 0.312 µM
TGI (HT29 colon): 1.02 µM
GI50 (NCI/ADR-RES ovarian): 1.92 µM
TGI (NCI/ADR-RES ovarian): > 100 µM
GI50 (SW-620 colon): 0.387 µM
TGI (SW-620 colon): > 100 µM
GI50 (COLO 205 colon): 0.361 µM
TGI (COLO 205 colon): 1.77 µM
GI50 (SR leukemia): 0.182 µM
TGI (SR leukemia): > 100 µM
GI50 (SK-OV-3 ovarian): 0.465 µM
TGI (SK-OV-3 ovarian): > 100 µM
GI50 (NCI-H460 lung): 0.377 µM
TGI (NCI-H460 lung): > 100 µM
GI50 (SF-268 CNS): 0.731 µM
TGI (SF-268 CNS): > 100 µM
GI50 (PC-3 prostate): 0.384 µM
TGI (PC-3 prostate): > 100 µM
GI50 (LOX IMVI melanoma): 0.525 µM
TGI (LOX IMVI melanoma): > 100 µM
GI50 (MCF7 breast): 0.339 µM
TGI (MCF7 breast): > 100 µM
GI50 (OVCAR-4 ovarian): 3.44 µM
TGI (OVCAR-4 ovarian): > 100 µM
GI50 (UACC-62 melanoma): 0.668 µM
TGI (UACC-62 melanoma): > 100 µM
GI50 (SN12C renal): 0.91 µM
TGI (SN12C renal): > 100 µM
GI50 (786-0 renal): 0.369 µM
TGI (786-0 renal): > 100 µM
GI50 (NCI-H522 lung): 0.247 µM
TGI (NCI-H522 lung): 0.76 µM
GI50 (U251 CNS): 0.391 µM
TGI (U251 CNS): > 100 µM
GI50 (ACHN renal): 0.693 µM
TGI (ACHN renal): > 100 µM
GI50 (IGROV1 ovarian): 0.862 µM
TGI (IGROV1 ovarian): > 100 µM
GI50 (MOLT-4 leukemia): 0.565 µM
TGI (MOLT-4 leukemia): > 100 µM
GI50 (HS 578T breast): 0.414 µM
TGI (HS 578T breast): > 100 µM
GI50 (UO-31 renal): 0.883 µM
TGI (UO-31 renal): > 100 µM
GI50 (NCI-H23 lung): 0.882 µM
TGI (NCI-H23 lung): > 100 µM
GI50 (RPMI-8226 leukemia): 0.385 µM
TGI (RPMI-8226 leukemia): > 100 µM
GI50 (EKVX NSCLC): 0.72 µM
TGI (EKVX NSCLC): > 100 µM

COc1cc(C2Cc3ncccc3-c3[nH]c(=O)c4cccnc4c32)cc(OC)c1OC (stereo unspecified)
GI50 (DU-145 prostate): 0.428 µM
TGI (DU-145 prostate): > 100 µM
GI50 (SK-MEL-5 melanoma): 0.339 µM
TGI (SK-MEL-5 melanoma): 20.2 µM
GI50 (SF-539 CNS): 0.269 µM
TGI (SF-539 CNS): 1.55 µM
GI50 (A498 renal): 0.363 µM
TGI (A498 renal): 13.5 µM
GI50 (OVCAR-3 ovarian): 0.323 µM
TGI (OVCAR-3 ovarian): 5.49 µM
GI50 (A549 NSCLC): 0.825 µM
TGI (A549 NSCLC): > 100 µM
GI50 (K-562 leukemia): 0.313 µM
TGI (K-562 leukemia): > 100 µM
GI50 (CAKI-1 renal): 1.58 µM
TGI (CAKI-1 renal): > 100 µM
GI50 (SK-MEL-28 melanoma): 36 µM
TGI (SK-MEL-28 melanoma): > 100 µM
GI50 (BT-549 breast): 0.633 µM
TGI (BT-549 breast): 66.6 µM
GI50 (HCC-2998 colon): 2.24 µM
TGI (HCC-2998 colon): > 100 µM
GI50 (NCI-H226 lung): > 74.7 µM
TGI (NCI-H226 lung): > 100 µM
GI50 (OVCAR-5 ovarian): 4.82 µM
TGI (OVCAR-5 ovarian): > 100 µM
GI50 (MDA-MB-231 breast): 3.88 µM
TGI (MDA-MB-231 breast): > 100 µM
GI50 (UACC-257 melanoma): > 100 µM
TGI (UACC-257 melanoma): > 100 µM
GI50 (SNB-75 CNS): 0.255 µM
TGI (SNB-75 CNS): > 100 µM
GI50 (SNB-19 CNS): 0.823 µM
TGI (SNB-19 CNS): > 100 µM
GI50 (M14 melanoma): 0.405 µM
TGI (M14 melanoma): > 100 µM
GI50 (HCT-116 colon): 0.456 µM
TGI (HCT-116 colon): > 100 µM
GI50 (KM12 colon): 0.373 µM
TGI (KM12 colon): > 100 µM
GI50 (SK-MEL-2 melanoma): 0.485 µM
TGI (SK-MEL-2 melanoma): > 100 µM
GI50 (CCRF-CEM leukemia): 0.467 µM
TGI (CCRF-CEM leukemia): > 100 µM
GI50 (HL-60(TB) leukemia): 0.251 µM
TGI (HL-60(TB) leukemia): 2.95 µM
GI50 (HOP-62 NSCLC): 0.396 µM
TGI (HOP-62 NSCLC): > 87.4 µM
GI50 (HCT-15 colon): 0.809 µM
TGI (HCT-15 colon): > 100 µM
GI50 (HT29 colon): 0.347 µM
TGI (HT29 colon): > 100 µM
GI50 (NCI/ADR-RES ovarian): 2.16 µM
TGI (NCI/ADR-RES ovarian): > 100 µM
GI50 (SW-620 colon): 0.412 µM
TGI (SW-620 colon): > 100 µM
GI50 (COLO 205 colon): 0.332 µM
TGI (COLO 205 colon): 1.27 µM
GI50 (SR leukemia): 0.281 µM
TGI (SR leukemia): > 100 µM
GI50 (SK-OV-3 ovarian): 0.376 µM
TGI (SK-OV-3 ovarian): > 100 µM
GI50 (SF-295 CNS): 0.274 µM
TGI (SF-295 CNS): > 100 µM
GI50 (MALME-3M melanoma): > 100 µM
TGI (MALME-3M melanoma): > 100 µM
GI50 (NCI-H460 lung): 0.429 µM
TGI (NCI-H460 lung): > 100 µM
GI50 (SF-268 CNS): 0.67 µM
TGI (SF-268 CNS): > 100 µM
GI50 (PC-3 prostate): 0.513 µM
TGI (PC-3 prostate): > 100 µM
GI50 (LOX IMVI melanoma): 0.452 µM
TGI (LOX IMVI melanoma): > 100 µM
GI50 (MCF7 breast): 0.277 µM
TGI (MCF7 breast): > 100 µM
GI50 (OVCAR-4 ovarian): 1.12 µM
TGI (OVCAR-4 ovarian): > 100 µM
GI50 (UACC-62 melanoma): 0.463 µM
TGI (UACC-62 melanoma): > 100 µM
GI50 (SN12C renal): 1.19 µM
TGI (SN12C renal): > 100 µM
GI50 (OVCAR-8 ovarian): 0.97 µM
TGI (OVCAR-8 ovarian): > 100 µM
GI50 (MDA-MB-435): 0.0554 µM
TGI (MDA-MB-435): 0.428 µM
GI50 (786-0 renal): 1.41 µM
TGI (786-0 renal): > 100 µM
GI50 (NCI-H522 lung): 0.204 µM
TGI (NCI-H522 lung): 0.635 µM
GI50 (TK-10 renal): > 100 µM
TGI (TK-10 renal): > 100 µM
GI50 (U251 CNS): 0.524 µM
TGI (U251 CNS): 38.2 µM
GI50 (ACHN renal): 0.669 µM
TGI (ACHN renal): > 100 µM
GI50 (IGROV1 ovarian): 0.46 µM
TGI (IGROV1 ovarian): > 100 µM
GI50 (MOLT-4 leukemia): 0.535 µM
TGI (MOLT-4 leukemia): > 100 µM
GI50 (HS 578T breast): 0.613 µM
TGI (HS 578T breast): > 100 µM
GI50 (UO-31 renal): 0.819 µM
TGI (UO-31 renal): > 100 µM
GI50 (NCI-H23 lung): 0.999 µM
TGI (NCI-H23 lung): > 100 µM
GI50 (RXF 393 renal): 0.289 µM
TGI (RXF 393 renal): 2.01 µM
GI50 (RPMI-8226 leukemia): 0.68 µM
TGI (RPMI-8226 leukemia): > 100 µM
GI50 (EKVX NSCLC): 3.21 µM
TGI (EKVX NSCLC): > 100 µM
